According to patent US20040023924A1, “Use of xyloglucan polymers and oligomers, and derivative compounds, as phytosanitary products and biofertilizers” (priority 2000, published 2004):

Assays:
[1] = system: Rubus fruticosus protoplasts; assay: Elicitation of an oxidative burst: generation of superoxide anion (Cyt c assay); format: cell-based; settings: 25° C.; for Cytochrome c reduction response (100% = non-elicited controls): at 10 nM; for Optimal response, cytochrome c reduction (100% = non-elicited controls): at the optimal dose
Experimental: Preparation of Rubus fruticosus protoplasts according to Vargas-Rechia (1998). The protoplast yield is of the order of 70 to 85% of the initial number of cells used; the viability of the protoplasts, of the order of 90 to 95%, was checked using Evans blue indicator.
The Cyt c assay was carried out according to Nakanishi et al. (1991) in the following manner. Incubation at 25° C. of 4.10^6 protoplasts in the presence of Cyt c (100 μM), and of the elicitor (0 to 100 μM): 2′-fucosyl lactose (compound A), XXFGol (compound B).
Evaluation of the experimental data: The reaction rate is given by (AF340 min^−1). At least three kinetic curves are plotted per experimental condition. One point on the graph corresponds to the slope of the regression curve deduced from at least 6 kinetic curves.
The elicitation response is evaluated according to the cytochrome c reduction measured by the absorbance variation at […]; the 100% reference value corresponds to the reduction count of the controls (non-elicited protoplast suspensions).

[2] = system: endochitinase (EC 3.2.1.14); assay: Induction of an endochitinase response in elicited cells; format: cell-based, Acer pseudoplatanus L.; settings: 50 nM elicitor; for Endochitinase response: 42 hours; for Endochitinase early response R: after approximately 25 minutes
Experimental: Vegetable material: Acer pseudoplatanus L Cells in Suspension
Test: 2.10^6 Acer pseudoplatanus L. cells were elicited under circular stirring (80 rpm), in 25 ml of culture medium (without 2,4-D) by 50 nM of 2′-fucosyl lactose (compound A) or 50 nM of methyl α-L-Fuc (1→2) β-D-Gal (1→2) β-D-Xyl trisaccharide (compound B)(synthesized according to Lopez et al., 1994) or for a variable time (0 to 42 hours) in the presence or not in the presence of an effector: cycloheximide (1 μM), okadaic acid (5 nM), staurosporine (500 nM), or boroglycine (500 nM). The elicitation experiment is stopped by putting the cells in ice. The cells recovered after decantation and taken up in approximately 1 ml of elicitation buffer are the subject of a specific protein extraction.
D-glycosylhydrolase extraction. The enzyme extracts are prepared from elicited or non-elicited cells. The cells are homogenized at 0° C. in Tris-HCl buffer (50 mM pH 7.2) containing 1 M of NaCl with a Vibracell™ Bioblock sonicator, maximum power, for 3 times 1 minute. The homogenates are centrifuged at 4° C. (12000 g, 15 minutes) then dialysed and concentrated on Ultrafree™ Millipore ultrafiltration units (cut-off threshold 10 kDa). The retentates, taken up in distilled water, are crude extracts.
Endochitinase activity assay. This is based on the released reducing sugar assay according to Somogyi (1952). The reaction medium contains the enzyme extract (1 μg of proteins), the substrate (25 μg of chitin) in 100 μl of sodium acetate buffer (0.1 M), pH 5.0; the enzymatic reaction at 40° C. develops over a variable time (1 to 5 hours).
Evaluation of the experimental data. At least 2 kinetics were carried out per sample, and per set of experiments. The reaction rate (ΔA410 minutes^−1 for example) is obtained by linear regression from 4 kinetic curves. The results are expressed by the ratio R (enzymatic activity in elicited cells/enzymatic activity in non-elicited control cells).

[3] = system: Phospholipase D (E.C: 3.1.4.4); assay: Elicitation of phospholipase D activity (NBD-PE fluorescence); format: cell-based, Acer pseudoplatanus L.; settings: for Optimal Plase D response (100% = non-elicited cells): at the optimal concentration
Text: Vegetable material: Acer pseudoplatanus L. cells in Suspension
Phospholipase D (E.C: 3.1.4.4) (Plase D) activity: this is a phosphatidylcholine phosphatidohydrolase which releases the O-R3 group, according to the diagram below. To the extent that O-R3 is marked (a fluorochrome for example), quantifying this group is equivalent to assaying Plase D activity. For the experiments the substrate used is phosphatidylcholine conjugated to a fluorochrome, i.e. the product nitrobenzoxadiazole phosphoethanolamine (NBD-PE). The retained excitation and emission wavelengths of the fluorochrome are 460 nm and 534 nm respectively. [drawing 5]
Principle: assaying Plase D activity is equivalent to estimating the fluorescence variation at 534 nm of a reaction medium with a spectrofluorimeter (Perkin Elmer).
Test: the reaction medium in a microtitration plate well is as follows: 1.3 10^7 Acer pseudoplatanus L. cells are incubated in a 50 mM HEPES buffer, pH 6.8 enriched with CaCl2 (1 μM), ATP (2 μM), octyl-D-glucoside 50 μM, GTP (6 μM) in the presence of the NBD-PE substrate (4 μM), in the presence or absence of an elicitor (0-100 nM): 2′-fucosyl-lactose (FL), compound A; XXFGol, compound B, in the presence or not in the presence of a methyl jasmonate effector (0-5 nM). The Plase D activity assay is carried out by measuring the fluorescence at 534 nm.
Evaluation of the experimental data. For each sample at least three kinetics are recorded; the Plase D activity is given by the slope of the regression curve. The results are expressed by Δ F534 min^−1. One point on the graph corresponds to the linear regression treatment of at least 2 kinetic curves originating from 2 different samples.
The Plase D elicitation response is evaluated according to the fluorescence variation at […]; the 100% reference value corresponds to the fluorescence in the controls (non-elicited cells)

SMILES | Elicitor dose of optimal response, cytochrome c reduction (superoxide anion) [1] [nM] | Cytochrome c reduction response (100% = non-elicited controls) [1] [%] | Optimal response, cytochrome c reduction (100% = non-elicited controls) [1] [%] | Endochitinase response [2] | Endochitinase early response R [2] | Elicitor concentration of optimal Plase D response [3] [nM] | Optimal Plase D response (100% = non-elicited cells) [3] [%] | Plase D elicitation: methyl jasmonate versus 2′-fucosyl lactose ([3]; methyl jasmonate 0 to 5 nM, 2′-fucosyl lactose 1 nM, dose-dependent)
CO[C@@H]1OC[C@@H](O)[C@H](O)[C@H]1O[C@@H]1O[C@H](CO)[C@H](O)[C@H](O)[C@H]1O[C@@H]1O[C@@H](C)[C@@H](O)[C@@H](O)[C@@H]1O [compound B, methyl α-L-Fuc (1→2)β-D-Gal (1→2)β-D-Xyl] | 15 | 160 | 159 | no enzymatic activation was detected | ~6 | 1.7 | 230 | 
C[C@@H]1O[C@@H](O[C@H]2[C@H](O[C@H]3[C@H](O)[C@@H](O)[C@H](O)O[C@@H]3CO)O[C@H](CO)[C@H](O)[C@@H]2O)[C@@H](O)[C@H](O)[C@@H]1O [compound A, α-L-Fuc(1→2)β-D-Gal(1→4)β-D-Glc] | 50 | 187 | 200 | no enzymatic activation was detected | ~6 | 1 | 244 | antagonistic
